pIC50: −log10 of the molar value. “And” between values parts separate entries of the source, which are not always exact repeats. Identical values can stand only once. “Also recorded” adds a separate entry of the source. Like-named read-outs stand apart in the source and are kept apart here. Ends that are not written are not given here.
Key:
[1] = biological target: T1, mammalian ribonucleotide reductase (Bos taurus, UniProt Q32LP1); assay: Peptide inhibition of mammalian ribonucleotide reductase activity; type: biochemical; details: for % RI (relative inhibitory potency, (IC50 AcFTLDADF)/(IC50 peptide analog)): mean and average deviation of 2-3 determinations, others single
T1 sequence (Q32LP1 1-791): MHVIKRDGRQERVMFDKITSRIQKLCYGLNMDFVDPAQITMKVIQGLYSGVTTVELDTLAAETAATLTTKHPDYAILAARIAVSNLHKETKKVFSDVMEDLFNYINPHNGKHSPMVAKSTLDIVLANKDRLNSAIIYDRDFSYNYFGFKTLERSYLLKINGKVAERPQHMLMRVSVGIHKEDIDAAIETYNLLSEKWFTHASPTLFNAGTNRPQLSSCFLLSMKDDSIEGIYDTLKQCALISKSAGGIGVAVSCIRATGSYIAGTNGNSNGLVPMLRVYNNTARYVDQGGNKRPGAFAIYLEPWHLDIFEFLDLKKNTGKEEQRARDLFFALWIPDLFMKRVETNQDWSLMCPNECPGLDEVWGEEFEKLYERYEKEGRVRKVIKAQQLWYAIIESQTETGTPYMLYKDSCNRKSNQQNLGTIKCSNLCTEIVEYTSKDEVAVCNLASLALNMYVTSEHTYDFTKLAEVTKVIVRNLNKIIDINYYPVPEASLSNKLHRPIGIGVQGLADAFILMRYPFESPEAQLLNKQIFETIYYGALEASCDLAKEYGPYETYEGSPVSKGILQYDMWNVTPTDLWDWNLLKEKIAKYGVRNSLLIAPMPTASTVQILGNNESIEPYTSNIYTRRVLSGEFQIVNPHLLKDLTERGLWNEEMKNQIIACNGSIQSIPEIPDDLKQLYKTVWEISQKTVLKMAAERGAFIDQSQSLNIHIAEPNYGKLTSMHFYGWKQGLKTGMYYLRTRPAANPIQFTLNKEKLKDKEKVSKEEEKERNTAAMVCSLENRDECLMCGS
Text: All three methods yielded acceptable results, with the following limitations. Method 1 is useful for the assay of CDP to dCDP and ADP to dADP conversions, but is not useful for the assay of GDP reduction. It is also sensitive to large changes in the nucleotide composition of the assay medium. […] Method 2 is the easiest to perform on purified enzymes, and can be used with all four NDPs as substrates, but is difficult to use with crude enzyme, largely because contaminating phosphatase activities can skew results. Method 3 is usable with all four NDPs, but is also somewhat sensitive to large changes in the nucleotide composition of the assay medium and requires column separation at 4° C.

RR [2] = biological target: T2, RR (Mus musculus, UniProt P07742); assay: Inhibition of RR by Compound 23; type: biochemical
T2 sequence (P07742 1-792): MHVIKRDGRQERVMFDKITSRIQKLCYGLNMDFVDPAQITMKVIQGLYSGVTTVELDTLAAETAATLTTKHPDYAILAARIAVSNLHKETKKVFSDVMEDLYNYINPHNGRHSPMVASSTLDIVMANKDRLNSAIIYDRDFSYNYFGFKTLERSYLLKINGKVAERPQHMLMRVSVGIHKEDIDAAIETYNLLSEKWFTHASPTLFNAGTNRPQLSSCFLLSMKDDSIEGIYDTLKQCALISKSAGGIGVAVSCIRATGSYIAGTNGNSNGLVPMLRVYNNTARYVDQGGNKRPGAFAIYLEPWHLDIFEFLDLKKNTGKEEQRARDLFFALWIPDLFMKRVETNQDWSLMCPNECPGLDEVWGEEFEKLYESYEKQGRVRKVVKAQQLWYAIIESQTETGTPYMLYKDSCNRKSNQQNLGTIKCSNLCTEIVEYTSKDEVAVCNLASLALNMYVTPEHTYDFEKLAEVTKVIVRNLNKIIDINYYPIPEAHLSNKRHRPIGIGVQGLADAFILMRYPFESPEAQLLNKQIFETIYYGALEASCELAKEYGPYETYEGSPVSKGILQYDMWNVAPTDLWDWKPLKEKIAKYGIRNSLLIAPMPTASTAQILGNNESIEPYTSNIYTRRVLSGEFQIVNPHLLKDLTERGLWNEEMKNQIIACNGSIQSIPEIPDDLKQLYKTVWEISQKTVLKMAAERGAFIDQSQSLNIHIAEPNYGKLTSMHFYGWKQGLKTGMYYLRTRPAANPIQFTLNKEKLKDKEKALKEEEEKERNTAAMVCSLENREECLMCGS
Text: (§1) Standard assays of RR activity used in the studies presented herein involve the conversion of [^3 H]-ribonucleoside diphosphate (NDP) to [^3 H]-deoxyribonucleoside diphosphate (dNDP), using dithiothreitol as the external reductant. Three methods were examined: Method 1 (Steeper et al., 1970, Anal. Biochem. 34:123-130), involving the conversion of diphosphates to nucleosides by enzymatic digestion, followed by the separation of deoxynucleoside from nucleoside on Dowex-1-borate columns; Method 2 (Moore et al., 1974, Biochemistry 13:2904-2907), involving the direct separation of dNDP from NDP on aminophenylboronate columns; Method 3 (Sato et al., 1983, Anal. Biochem. 135:431-435) involving the conversion of diphosphates to nucleosides by enzymatic digestion, followed by the separation of deoxynucleoside from nucleoside on polyethyleneimine-cellulose columns.
All three methods yielded acceptable results, with the following limitations. Method 1 is useful for the assay of CDP to dCDP and ADP to dADP conversions, but is not useful for the assay of GDP reduction. It is also sensitive to large changes in the nucleotide composition of the assay medium. Thus, it is quite useful for standard assays (purifications, tests of peptide inhibition), but difficult to apply when concentrations and substrate are widely varied. Method 2 is the easiest to perform on purified enzymes, and can be used with all four NDPs as substrates, but is difficult to use with crude enzyme, largely because contaminating phosphatase activities can skew results. Method 3 is usable with all four NDPs, but is also somewhat sensitive to large changes in the nucleotide composition of the assay medium and requires column separation at 4° C.

[3] = biological target: T3, mouse Y177F-R2 with recombinant mouse R1 (Mus musculus, UniProt P07742+P11157, Y177F); assay: Inhibition of Y177F-R2-dependent RR activity; details: dATP in presence of relatively high ATP
T3 sequence (P07742 1-792): T2 sequence (P07742 1-792)
T3 sequence (P11157 1-390 Y177F): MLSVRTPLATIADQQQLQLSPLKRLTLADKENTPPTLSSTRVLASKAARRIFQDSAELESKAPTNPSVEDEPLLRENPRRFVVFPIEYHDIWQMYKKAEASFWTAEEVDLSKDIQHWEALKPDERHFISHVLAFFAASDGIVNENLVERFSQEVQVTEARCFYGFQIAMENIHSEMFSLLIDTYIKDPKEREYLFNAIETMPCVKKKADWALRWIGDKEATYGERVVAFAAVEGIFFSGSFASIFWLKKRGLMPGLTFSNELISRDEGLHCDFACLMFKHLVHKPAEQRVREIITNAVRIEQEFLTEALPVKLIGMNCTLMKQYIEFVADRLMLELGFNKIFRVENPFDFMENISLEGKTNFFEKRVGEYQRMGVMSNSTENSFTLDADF

RR [4] = biological target: T2, RR; assay: Biological Evaluation of Compound (8): RR activity; type: biochemical
Text: as §1
All three methods yielded acceptable results, with the following limitations. Method 1 is useful for the assay of CDP to dCDP and ADP to dADP conversions, but is not useful for the assay of GDP reduction. It is also sensitive to large changes in the nucleotide composition of the assay medium. Thus, it is quite useful for standard assays (purifications, tests of peptide inhibition), but difficult to apply when concentrations and substrate are widely varied. […]

E. coli RR = E. coli RR (Escherichia coli, UniProt P00452); details: cited from earlier work
[5] = Table 8, Dixon plots of 4-6 concentration points, ranges are two independent determinations, read-out: IC50

Sequence of E. coli RR (P00452 whole entry): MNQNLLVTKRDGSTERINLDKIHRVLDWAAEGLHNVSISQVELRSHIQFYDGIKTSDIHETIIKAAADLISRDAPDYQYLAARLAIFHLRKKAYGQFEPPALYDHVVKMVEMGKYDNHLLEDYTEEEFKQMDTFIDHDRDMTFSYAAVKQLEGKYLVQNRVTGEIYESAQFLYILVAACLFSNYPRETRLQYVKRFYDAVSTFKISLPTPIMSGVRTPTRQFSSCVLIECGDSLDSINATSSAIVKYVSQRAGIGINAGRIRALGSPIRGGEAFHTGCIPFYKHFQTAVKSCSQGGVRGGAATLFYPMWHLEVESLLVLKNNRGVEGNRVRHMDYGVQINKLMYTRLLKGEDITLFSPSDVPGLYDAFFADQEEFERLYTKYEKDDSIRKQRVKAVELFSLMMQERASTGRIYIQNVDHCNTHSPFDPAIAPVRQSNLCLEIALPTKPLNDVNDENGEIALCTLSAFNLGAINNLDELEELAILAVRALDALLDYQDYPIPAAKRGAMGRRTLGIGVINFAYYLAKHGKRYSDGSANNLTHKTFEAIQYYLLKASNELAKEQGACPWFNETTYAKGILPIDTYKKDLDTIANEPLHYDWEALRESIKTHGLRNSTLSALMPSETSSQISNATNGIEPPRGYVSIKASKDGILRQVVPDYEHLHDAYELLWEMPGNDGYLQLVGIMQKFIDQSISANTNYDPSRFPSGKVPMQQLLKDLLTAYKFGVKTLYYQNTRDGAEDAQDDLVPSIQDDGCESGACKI

Which results are given for `CC(=O)N[C@@H](Cc1ccccc1)C(=O)NC[C@@H]1O[C@@H]([C@@H](C)C(=O)N[C@@H](CC(=O)O)C(=O)N[C@@H](Cc2ccccc2)C(=O)O)[C@@H](OCC(=O)O)C[C@H]1OCC(C)C` [Compound 23]?
Fold decrease in RI relative to N-AcFTLDADF ([1]; Table 8): three to four; Residual Relative Activity (RR [2]; 30 μM Compound 23): 86 ± 8 percentage; Residual Relative Activity (RR [2]; 100 μM Compound 23): 73 ± 6 percentage; Residual Relative Activity (RR [2]; 300 μM Compound 23): 64 ± 6 percentage; Residual Relative Activity (RR [2]; 500 μM Compound 23): 48 ± 4 percentage; Residual Relative Activity (RR [2]; 1000 μM Compound 23): 32 ± 6 percentage

With `Nc1ncnc2c1ncn2[C@H]1C[C@H](O)[C@@H](COP(=O)(O)OP(=O)(O)OP(=O)(O)O)O1` [dATP] as the compound, how does the pIC50 [3] read?
The pIC50 was 4.70.

With “Ac-FALDADF [Ac-FALDADF, Acetyl-Phe-Ala-Leu-Asp-Ala-Asp-Phe]” as the compound, how does the pIC50 [1, 5] read?
The pIC50 was 4.40 to 4.46.

With Ac-FLDADF [Ac-F-LDADF] as the compound, how does the pIC50 [1, 5] read?
The pIC50 was 3.39.

With “Ac-FSLDADF [Ac-FSLDADF, Acetyl-Phe-Ser-Leu-Asp-Ala-Asp-Phe]” as the compound, how does the pIC50 ([1]; Table 8, Dixon plots of 4-6 concentration points, ranges are two independent determinations) read?
Its pIC50 is 4.38 to 4.40.

For Ac-FTADADF [Ac-FTADADF], which “% RI (relative inhibitory potency, (IC50 AcFTLDADF)/(IC50 peptide analog))” value ([1]; Table 8) is on record?
Its value is 4.9 ± 0.60%.

With Ac-FTFDADF [Ac-FTFDADF] as the compound, how does the “% RI (relative inhibitory potency, (IC50 AcFTLDADF)/(IC50 peptide analog))” value ([1]; Table 8) read?
Its value is 18 ± 4.2%.

With Ac-FTFNEDF [AcFTFNEDF] as the compound, how does the pIC50 ([1]; Table 9, read-out: IC50, Mammalian RR) read?
Its pIC50 is 4.00.

What does the source list for Ac-FTLAADF [Ac-FTLAADF]?
Fold decrease in RI relative to N-AcFTLDADF ([1]; Table 8): > 30 fold; % RI (relative inhibitory potency, (IC50 AcFTLDADF)/(IC50 peptide analog)) ([1]; Table 8): 2.9 ± 0.4%

With “Ac-FTLDADF [Ac-FTLDADF, Acetyl-Phe-Thr-Leu-Asp-Ala-Asp-Phe]” as the compound, how does the pIC50 [1, 5] read?
Its pIC50 is 4.70 to 5.10.

What about the “RR Activity” value (RR [4]; compound at 10 μM) of the same compound?
The value was 0.39 ± 0.07.

What about the “RR Activity” value (RR [4]; compound at 66 μM) of the same compound?
The value was 0.12.

And the pIC50 (E. coli RR; E. coli R1 protein / RR)?
Its pIC50 is less than 3.00.

And the “Inhibition of E. coli RR” value (E. coli RR)?
The value was “at best a very poor inhibitor of eRR; also recorded: failure to significantly inhibit E. coli RR up to concentrations of 1 mM”.

Which “% RI (relative inhibitory potency, (IC50 AcFTLDADF)/(IC50 peptide analog))” value ([1]; Table 8) does the source give for Ac-FTLDADFAA here?
Its value is 2.1%.

With Ac-FTLDADL [Ac-FTLDADL] as the compound, how does the “Fold decrease in RI relative to N-AcFTLDADF” value ([1]; Table 8) read?
Its value is “over 40 fold”.

What about the “% RI (relative inhibitory potency, (IC50 AcFTLDADF)/(IC50 peptide analog))” value ([1]; Table 8) of the same compound?
The value was 3% and < 3%.

Which “Fold decrease in RI relative to N-AcFTLDADF” value ([1]; Table 8) does the source give for Ac-FTLDAEF [Ac-FTLDAEF] here?
The value was greater than 50 fold.

And the “% RI (relative inhibitory potency, (IC50 AcFTLDADF)/(IC50 peptide analog))” value ([1]; Table 8)?
The value was 1.7 ± 0.15%.

Which results are given for Ac-FTLDANF [Ac-FTLDANF]?
Fold decrease in RI relative to N-AcFTLDADF ([1]; Table 8): three to four; % RI (relative inhibitory potency, (IC50 AcFTLDADF)/(IC50 peptide analog)) ([1]; Table 8): 23 ± 1.0%
